# Measurements: US12083084B2, “Method for enhancing energy production and metabolism in cells” (REPLICON HEALTH OY, priority 2013, dated 2024)
# Entries after “also recorded” stand apart in the source; their conditions may differ.
# What was measured:
# Assay type in all cases: cell-based
# [1] = system: primary human hepatocytes; test: Cellular ROS detection (DCFDA) in primary human hepatocytes; details: primary human hepatocytes, moderate metabolic stress (1.5-2 h after change of medium)
# Method: (§1) Primary human hepatocytes were purchased from Celsis In Vitro Technologies (1450 South Rolling Road Baltimore, MD 21227, USA). […] According to the information provided by the Celsis, hepatocytes from each donor should have at least 70% viability and more than 5 million viable cells. The medium for the culture of hepatocytes was provided by Celsis. They were InVitroGRO CP (for plating) medium (Z99029) and InVitroGRO HI (for incubation) medium (Z99009). Antibiotics (Torpedo Antibiotics Mix, Z990007) were also from Celsis. The thaw, plating and culture of cells were carried out according to the instruction provided by the Celsis In Vitro Technologies.
# (§2) For the measurement of cell viability after treatment of test compound, CytoTox-One Homogeneous Membrane Integrity Assay kit (Promega, G7891) was used. The CytoTox-One Assay is a rapid fluorescent measure of the release of lactate dehydrogenase (LDH) from cells with a damaged membrane. The number of […] cells correlates to the fluorescence intensity determined by a fluorescence plate reader (Hidex Chameleon V multiplate reader, Hidex Oy, Turku, Finland) with excitation 544 nm and emission 590 nm. For the measurement of cellular reactive oxygen species (ROS), DCFDA Cellular ROS Detection Assay Kit from Abcam (ab113851) was used. Reactive oxygen species (ROS) assay kit (ab113851) uses the cell permeant reagent 2′,7′-dichlorofluorescein diacetate (DCFDA), a fluorogenic dye that measures hydroxyl, peroxyl and other ROS activity with the cell. The activity of ROS was measured by a fluorescence plate reader (Hidex) with excitation/emission wavelengths of 485 nm/535 nm.
# (§3) The culture of primary hepatocytes was carried out based on the instructions provided by Celsis. After thawing, the cells were suspended in InVitroGRO CP medium. Thereafter the viability of cells was determined using the Trypan Blue exclusion method. Then the concentration of cells was adjusted using InVitroGRO CP medium, so about 30000-35000 cells/100 μl/well can be seeded in collagen I coated 96 well plate (BD, 734-0248).
# (§4) After seeding, the cells were cultured overnight in the cell culture incubator (Sanyo MCO 18) at atmosphere of 95% air, 5% CO2 at 37° C. Thereafter, the culture medium for the cells was changed to InVitroGRO Hi (Hi Medium) containing test compound (D-glyceric acid calcium salt dehydrate) at the concentrations of 0, 0.2, 2 and 20 μg/ml (study 1, Table 1.1.1) and 0, 0.4, 2 and 10 μg/ml (study 2, Table 1.1.2).
# In study 3 also LGA and HPA were tested and compared to DGA (see FIGS. 11c and 11d) with same doses as in study 2.
# In studies 2-4 additional diet with 0.75 mM of palmitic acid (“fatty acid diet”) was added to Hi Medium. Hi Medium in itself contains ample amounts of glucose and fructose and other necessary ingredients for keeping viability of the cell culture at optimal level.
# (§5) After 24 h (in study 1) and 20 h (in studies 2-4) incubation medium was renewed. Second renewal of the incubation medium occurred at 48 h in study 1 and at 40 h in other studies. ROS and LDH were measured after 1.5-2 hours after last change of the medium, i.e. in a situation with moderate metabolic stress.
# The measurement of cellular reactive oxygen species (ROS) was carried out according to the instruction of Abcam (ab113851). At the end of treatment time point, culture medium was taken away for leaked LDH measurement and cells were washed with 100 μl/well PBS once. Thereafter 100 μl/well of DCDA mix was added and incubated for 45 min at 37° C. in the dark. Then cells were washed once with 1× buffer solution. The fluorescence signal was measured at an excitation wavelength of 485 nm and emission wavelength of 535 nm using the Hidex Chameleon V multiplate reader (Hidex Oy, Turku, Finland).
# For the LDH and ROS assays, individual values of each measurement were stored and average value of fluorescence signals of various repeats of each treatment at studied time point were calculated and compared. […]
# human hepatocytes = test: Gene expression from hepatocytes lysates; details: donor three, N = 5; 14 (μM)
# [2] = system: human primary hepatocytes; test: NAD+/NADH quantification in human hepatocytes; set-up: NADtot / NADH / NAD+ / NAD+/NADH: unit not given here; details: donor alpha, new nutrition at 48 h, N = 5; 14 (μM); 48 h + 3 h
# Excerpt: For the measurement of total NAD (NADtot=NADH+NAD^+) and NAD^+/NADH ratio, a NAD^+/NADH Quantification kit (MAK037) from Sigma was used. NAD functions as an electron carrier, fluctuating between the oxidized (NAD^+) and reduced (NADH) forms. In addition, NAD^+ plays critical roles in ADP-ribosylation reaction and as a substrate for sirtuins. According to the Sigma instruction, the NAD^+/NADH Quantification kit (Sigma) provides a convenient tool for sensitive detection of NAD, NADH and their ratio without requirement to purify them from samples. Important to notice is that the kit measures NADH and NAD^+ in whole cell including all cell organelles and compartments. Mitochondrial matrix is clearly dominant NADH producer from TCA and beta oxidation (consuming naturally the same amount of NAD^+ in redox reactions). Importantly, formed NADH is also typically oxidized into NAD^+ in the matrix by Complex I in ETC. As is well known anaerobic carbohydrate metabolism, i.e. glycolysis, in cytosol also consumes NAD^+ and produces NADH.
# Cell culture in NADH-tests was like in Example 1.1. The change of the medium with DGAcs was conducted at 0 h, 24 h and 48 h. NAD measurements were made at 48+3 h in all cases. For CDP also HPA was tested, and for DOO no new nutrition at 48 h was added, i.e. test was conducted in fasting conditions.
# [3] = system: primary human hepatocytes; test: Cell viability by LDH release (CytoTox-One) in primary human hepatocytes; details: for viability compared to 0 dose (in words): primary human hepatocytes, standard treatment, moderate metabolic stress
# Method: as §1, §2, §3, §4, §5
# The measurement of LDH from medium (leaked LDH) and from cell and medium (total LDH) was carried out according to the instruction provided by the Promega (G7891). The plate was incubated at an incubator to achieve a temperature of 22° C. Thereafter, equal volume of CytoTox-ONE Reagent to cell culture medium (100 μl) was added to each well and mix for 30 seconds. Then they were incubated for 10 min at 22° C., and then 50 μl of Stop Solution was added to each well. After gentle mixing, the fluorescence signal was measured at an excitation wavelength of 560 nm and emission wavelength of 590 nm using the Hidex Chameleon V multiplate reader (Hidex Oy, Turku, Finland).
# For the total LDH measurement, all the steps are same except a 2 μl of Lysis Solution (per 100 μl original volume) will be added to the each well to lyse the cells before CytoTox-ONE Reagents will be added.
# For the LDH and ROS assays, individual values of each measurement were stored and average value of fluorescence signals of various repeats of each treatment at studied time point were calculated and compared. […] Viability (LDH) measurements contained 4-6 repeats depending on the study. […]
Compound,ROS compared to 0 dose/control (in words) [1],CYP2B6 gene expression deviation from control (human hepatocytes) [%],HO-1 gene expression deviation from control (human hepatocytes) [%],PGC-1a gene expression deviation from control (human hepatocytes) [%],Change in NAD+/NADH vs. Control [2] [%],NAD+ [2],NAD+/NADH [2],NADH [2],NADtot [2],viability compared to 0 dose (in words) [3],"decrease of viability ([3]; donor one, High Medium only, equimolar comparison, 20+20+1.5 h, FIG. 6) [%]"
"O=C(O)C(=O)CO [HPA, hydroxypyruvate]",decrease ROS levels significantly; also recorded: reduced ROS,7,1,−2,−47,0.010,0.045,0.222,0.232,modestly increase the viability,–
"O=C(O)[C@@H](O)CO [LGA, L-glyceric acid]",decrease ROS levels significantly,–,–,–,–,–,–,–,–,modestly increase the viability,–
"trolox [Vitamin E, reference compound]",–,–,–,–,–,–,–,–,–,–,~23
